Data from patent US11254686B1 (Corvus Pharmaceuticals, Inc., priority 2017, dated 2022).

Columns and labels:
adenosine A2A receptor = adenosine A2A receptor (Homo sapiens (Human), UniProt P29274); test: Adenosine receptor activity assay (Table 1), A2A activity; type: biochemical; details: read-out: Ave A2A cAMP IC50
adenosine A2B receptor = adenosine A2B receptor (Homo sapiens (Human), UniProt P29275); test: Adenosine receptor activity assay (Table 1), A2B activity; type: biochemical; details: for IC50: read-out: Ave A2B cAMP IC50; for Ratio: A2A activity to A2B activity (A2A/A2B)
Chain of adenosine A2B receptor (P29275 whole entry): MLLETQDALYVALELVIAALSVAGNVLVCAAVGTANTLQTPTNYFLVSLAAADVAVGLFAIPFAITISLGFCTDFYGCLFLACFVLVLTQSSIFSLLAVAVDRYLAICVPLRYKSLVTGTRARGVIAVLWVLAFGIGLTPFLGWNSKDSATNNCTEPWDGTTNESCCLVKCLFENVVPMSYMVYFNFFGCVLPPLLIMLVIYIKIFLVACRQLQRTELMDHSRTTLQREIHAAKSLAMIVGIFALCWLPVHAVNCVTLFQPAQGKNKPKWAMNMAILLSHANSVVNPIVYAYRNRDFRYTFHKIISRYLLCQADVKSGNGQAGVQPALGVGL

Chain of adenosine A2A receptor (P29274 whole entry): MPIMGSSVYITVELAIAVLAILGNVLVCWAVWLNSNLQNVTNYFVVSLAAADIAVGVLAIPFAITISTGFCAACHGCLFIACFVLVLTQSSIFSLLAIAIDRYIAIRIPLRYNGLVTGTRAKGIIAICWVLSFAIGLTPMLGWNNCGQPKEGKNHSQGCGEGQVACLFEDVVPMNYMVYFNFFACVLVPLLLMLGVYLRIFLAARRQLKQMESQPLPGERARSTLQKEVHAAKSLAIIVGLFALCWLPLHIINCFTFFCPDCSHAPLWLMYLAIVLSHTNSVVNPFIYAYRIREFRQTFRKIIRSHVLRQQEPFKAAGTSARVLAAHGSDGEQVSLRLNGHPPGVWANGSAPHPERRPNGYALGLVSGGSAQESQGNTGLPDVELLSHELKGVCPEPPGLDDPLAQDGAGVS

SMILES | IC50 (adenosine A2A receptor) [nM] | IC50 (adenosine A2B receptor) [nM] | Ratio (adenosine A2B receptor)
C[C@H](Nc1nc(C(=O)N2CCNC2)c2sccc2n1)c1cccnc1 [Example Z148, (S)-Imidazolidin-1-yl(2-((1-(pyridin-3-yl)ethyl)amino)thieno[3,2-d]pyrimidin-4-yl)methanone] | > 500 | > 500 | 4.87
O=C(c1nc(NCc2cncc(F)c2)nc2ccsc12)N1CCNC1 [Example Z149, (2-(((5-Fluoropyridin-3-yl)methyl)amino)thieno[3,2-d]pyrimidin-4-yl)(imidazolidin-1-yl)methanone] | > 500 | > 500 | 14.43
C[C@H](Nc1nc(C(=O)N[C@H]2CCNC2)c2sccc2n1)c1ccccn1 [Example Z150, 2-(((S)-1-(pyridin-2-yl)ethyl)amino)-N—((S)-pyrrolidin-3-yl)thieno[3,2-d]pyrimidine-4-carboxamide] | > 500 | > 500 | 7.05
O=C(c1nc(NCc2cnccn2)nc2ccsc12)N1CCC1 [Example Z155, Azetidin-1-yl(2-((pyrazin-2-ylmethyl)amino)thieno[3,2-d]pyrimidin-4-yl)methanone] | > 500 | 50 to 100 | 18.83
O=C(c1nc(NCc2cnccn2)nc2ccsc12)N1CC[C@H](O)C1 [Example Z156, (S)-(3-Hydroxypyrrolidin-1-yl)(2-((pyrazin-2-ylmethyl)amino)thieno[3,2-d]pyrimidin-4-yl)methanone] | > 500 | > 500 | 14.60
COCCNC(=O)c1nc(NCc2cnccn2)nc2ccsc12 [Example Z157, N-(2-Methoxyethyl)-2-((pyrazin-2-ylmethyl)amino)thieno[3,2-d]pyrimidine-4-carboxamide] | > 500 | > 500 | 3.17
Nc1cc2nc(NCc3cccnc3)nc(C(=O)N3CCCC3)c2s1 [Example Z186, (6-Amino-2-((pyridin-3-ylmethyl)amino)thieno[3,2-d]pyrimidin-4-yl)(pyrrolidin-1-yl)methanone] | > 500 | 50 to 100 | 29.35
C[C@H](Nc1nc(C(=O)N2CC[C@H](O)C2)c2sc(N)cc2n1)c1cccnc1 [Example Z196, (6-Amino-2-(((S)-1-(pyridin-3-yl)ethyl)amino)thieno[3,2-d]pyrimidin-4-yl)((S)-3-hydroxypyrrolidin-1-yl)methanone] | > 500 | 10 to 50 | 102.27
C[C@H](Nc1nc(C(=O)N2CC[C@H](F)C2)c2sc(N)cc2n1)c1cccnc1 [Example Z204, (6-Amino-2-(((S)-1-(pyridin-3-yl)ethyl)amino)thieno[3,2-d]pyrimidin-4-yl)((S)-3-fluoropyrrolidin-1-yl)methanone] | 100 to 500 | 10 to 50 | 13.13
C[C@H](Nc1nc(C(=O)N2CC(O)C2)c2sc(N)cc2n1)c1ccccn1 [Example Z205, (S)-(6-Amino-2-((1-(pyridin-2-yl)ethyl)amino)thieno[3,2-d]pyrimidin-4-yl)(3-hydroxyazetidin-1-yl)methanone] | 100 to 500 | 10 to 50 | 27.10
C[C@@H]1CCN(C(=O)c2nc(N[C@@H](C)c3ccccn3)nc3cc(N)sc23)C1 [Example Z206, (6-Amino-2-(((S)-1-(pyridin-2-yl)ethyl)amino)thieno[3,2-d]pyrimidin-4-yl)((R)-3-methylpyrrolidin-1-yl)methanone] | 100 to 500 | 10 to 50 | 8.53
CNc1cc2nc(N[C@@H](C)c3ccccn3)nc(C(=O)N3CC[C@@H](C)C3)c2s1 [Example Z207, (6-(Methylamino)-2-(((S)-1-(pyridin-2-yl)ethyl)amino)thieno[3,2-d]pyrimidin-4-yl)((R)-3-methylpyrrolidin-1-yl)methanone] | 100 to 500 | 10 to 50 | 14.35
C[C@H](Nc1nc(C(=O)N2CC[C@@H](O)C2)c2sc(N)cc2n1)c1ccccn1 [Example Z208, (6-Amino-2-(((S)-1-(pyridin-2-yl)ethyl)amino)thieno[3,2-d]pyrimidin-4-yl)((R)-3-hydroxypyrrolidin-1-yl)methanone] | > 500 | 50 to 100 | 18.79
C[C@H](Nc1nc(C(=O)NCCO)c2sc(N)cc2n1)c1ccccn1 [Example Z209, (S)-6-Amino-N-(2-hydroxyethyl)-2-((1-(pyridin-2-yl)ethyl)amino)thieno[3,2-d]pyrimidine-4-carboxamide] | > 500 | 10 to 50 | 30.22
CCc1cc2nc(N[C@@H](C)c3cccnc3)nc(C(=O)N3CCCC3)c2s1 [Example Z214, (S)-(6-Ethyl-2-((1-(pyridin-3-yl)ethyl)amino)thieno[3,2-d]pyrimidin-4-yl)(pyrrolidin-1-yl)methanone] | > 500 | 100 to 500 | 6.84
C[C@H](Nc1nc(C(=O)NCCS(C)(=O)=O)c2sccc2n1)c1ccccn1 [Example Z215, (S)—N-(2-(Methylsulfonyl)ethyl)-2-((1-(pyridin-2-yl)ethyl)amino)thieno[3,2-d]pyrimidine-4-carboxamide] | 100 to 500 | 100 to 500 | 2.95
COCC(Nc1nc(C(=O)NC2COC2)c2sccc2n1)c1cccnc1 (stereo not shown) [Example Z216, 2-((2-Methoxy-1-(pyridin-3-yl)ethyl)amino)-N-(oxetan-3-yl)thieno[3,2-d]pyrimidine-4-carboxamide] | 100 to 500 | 10 to 50 | 5.35

Other lines, results leading:

IC50 (adenosine A2A receptor) [nM] | IC50 (adenosine A2B receptor) [nM] | Ratio (adenosine A2B receptor) | SMILES
100 to 500 | 10 to 50 |  | COCCNC(=O)c1nc(NCc2cncc(F)c2)nc2ccsc12 [Example Z146, 2-(((5-Fluoropyridin-3-yl)methyl)amino)-N-(2-methoxyethyl)thieno[3,2-d]pyrimidine-4-carboxamide]
100 to 500 | 100 to 500 |  | C[C@H](Nc1nc(C(=O)NCC2CCN(Cc3ccccc3)CC2)c2sccc2n1)c1ccccn1 [Example Z151, (S)—N-((1-Benzylpiperidin-4-yl)methyl)-2-((1-(pyridin-2-yl)ethyl)amino)thieno[3,2-d]pyrimidine-4-carboxamide]
100 to 500 | 50 to 100 | 4.52 | O=C(NC1CCC1)c1nc(NCc2cnccn2)nc2ccsc12 [Example Z154, N-Cyclobutyl-2-((pyrazin-2-ylmethyl)amino)thieno[3,2-d]pyrimidine-4-carboxamide]
100 to 500 | 10 to 50 | 36.14 | O=C(c1nc(NCc2cc(F)cc(F)c2)nc2ccsc12)N1CCC1 [Example Z168, Azetidin-1-yl(2-((3,5-difluorobenzyl)amino)thieno[3,2-d]pyrimidin-4-yl)methanone]
100 to 500 | 100 to 500 | 3.76 | CC(C)(C)OC(=O)N1CC(NC(=O)c2nc(NCc3cncc(F)c3)nc3ccsc23)C1 [Example Z178, tert-Butyl 3-(2-(((5-fluoropyridin-3-yl)methyl)amino)thieno[3,2-d]pyrimidine-4-carboxamido)azetidine-1-carboxylate]
50 to 100 | 50 to 100 | 1.09 | C[C@H](Nc1nc(C(=O)NC2CN(C(=O)OC(C)(C)C)C2)c2sccc2n1)c1ccccn1 [Example Z179, tert-Butyl (S)-3-(2-((1-(pyridin-2-yl)ethyl)amino)thieno[3,2-d]pyrimidine-4-carboxamido)azetidine-1-carboxylate]
100 to 500 | 50 to 100 | 5.43 | C[C@H](Nc1nc(C(=O)N[C@@H](C)CO)c2sccc2n1)c1ccccn1 [Example Z181, N—((S)-1-Hydroxypropan-2-yl)-2-(((S)-1-(pyridin-2-yl)ethyl)amino)thieno[3,2-d]pyrimidine-4-carboxamide]
100 to 500 | 50 to 100 | 5.92 | C[C@H](CO)NC(=O)c1nc(N[C@@H](C)c2ccccn2)nc2ccsc12 [Example Z182, N—((R)-1-Hydroxypropan-2-yl)-2-(((S)-1-(pyridin-2-yl)ethyl)amino)thieno[3,2-d]pyrimidine-4-carboxamide]
50 to 100 | 10 to 50 | 4.46 | C[C@H](Nc1nc(C(=O)NCC2CCC2)c2sccc2n1)c1ccccn1 [Example Z193, (S)—N-(Cyclobutylmethyl)-2-((1-(pyridin-2-yl)ethyl)amino)thieno[3,2-d]pyrimidine-4-carboxamide]
100 to 500 | 10 to 50 | 5.79 | C[C@H](Nc1nc(C(=O)NC2COC2)c2sccc2n1)c1ccccn1 [Example Z194, (S)—N-(Oxetan-3-yl)-2-((1-(pyridin-2-yl)ethyl)amino)thieno[3,2-d]pyrimidine-4-carboxamide]
100 to 500 | 10 to 50 | 17.59 | C[C@H](Nc1nc(C(=O)N2CC[C@@H](F)C2)c2sc(N)cc2n1)c1cccnc1 [Example Z195, (6-Amino-2-(((S)-1-(pyridin-3-yl)ethyl)amino)thieno[3,2-d]pyrimidin-4-yl)((R)-3-fluoropyrrolidin-1-yl)methanone]
100 to 500 | 100 to 500 | 1.81 | C[C@H](Nc1nc(C(=O)NCc2cncc(C(F)(F)F)c2)c2sccc2n1)c1ccccn1 [Example Z200, (S)-2-((1-(Pyridin-2-yl)ethyl)amino)-N-((5-(trifluoromethyl)pyridin-3-yl)methyl)thieno[3,2-d]pyrimidine-4-carboxamide]
50 to 100 | 10 to 50 | 3.91 | COCC(Nc1nc(C(=O)NC2CC2)c2sccc2n1)c1cccnc1 (stereo not shown) [Example Z202, N-Cyclopropyl-2-((2-methoxy-1-(pyridin-3-yl)ethyl)amino)thieno[3,2-d]pyrimidine-4-carboxamide]
100 to 500 | 10 to 50 | 33.74 | C[C@H](Nc1nc(C(=O)N2CCC2)c2sc(N)cc2n1)c1cccnc1 [Example Z203, (S)-(6-Amino-2-((1-(pyridin-3-yl)ethyl)amino)thieno[3,2-d]pyrimidin-4-yl)(azetidin-1-yl)methanone]
